Reference: paper PMC10454375, “Cell-Impermeable Inhibitors Confirm That Intracellular Human Transglutaminase 2 Is Responsible for the Transglutaminase-Associated Cancer Phenotype” (International Journal of Molecular Sciences, 2023)
Peptide text beside a SMILES is read from it. * marks the point of attachment. X1 = C=CC(=O)NCCCCC(NC(=O)OCc1ccccc1)C(=O)N1CCN(C(=O)C(CCC(=O)*)NC(=O)c2cccc3ccccc23)CC1

How the values were obtained:
[1] = system: SCC-13 cells; assay: Cell proliferation, SCC-13; assay type: cell-based, human; conditions: concentrations up to 100 µM
Experimental: Figure 4 Treatment of cancer cells with cell-permeable and cell-impermeable inhibitors. (A) HaCaT and SCC-13 are epidermis-derived cutaneous squamous cell carcinoma cells that were treated for 10 h with NCEG-RHB prior to imaging using a spinning disc confocal microscope. NCEG-RHB localization is detected adjacent to the nuclei (N) in both cell types and is indicated by red arrows. The HaCaT cell cultures were also stained for 15 min with MitoTracker Green before imaging. MitoTracker Green detects mitochondria membrane proteins inside the cell and the labelling is indicated by green arrows. White scale bars = 100 µm. (B) SCC-13 cells treated with cell-impermeable inhibitor 18 (NCEG2) and cell-permeable inhibitors NC9, AA9, and NCEG-RHB. Scale bars represent 50 µm; (*) p value < 0.001 (C) HaCaT cells treated with cell-impermeable inhibitor 18 (NCEG2) and cell-permeable inhibitors NC9 and AA9. Scale bars represent 50 µm; (*) p value < 0.001. (D) MDA-MB-436 cells treated with cell-impermeable 18 (NCEG2) and with cell-permeable inhibitors NC9, AA9 and NCEG-RHB. Experiments were carried out in triplicate and are represented as average ± SD of the percentage of living cells; (**) p value < 0.01.

[2] = system: MDA-MB-231 cells; assay: Real-time cell migration assay (xCELLigence RTCA), MDA-MB-231; assay type: cell-based; conditions: 25 µM, 24 h
Experimental: We assayed the motility of MDA-MB-436 cells in the presence of vehicle or TG2 inhibitors 18 (NCEG2), 19 (NCEG-RHB), and NC9 at 25 μM concentration with the xCELLigence RTCA system (Real-Time Cell Analyzer System, Acea Biosciences Inc., San Diego, CA, USA). About 3 × 10^5 cells/wells were put into the top chambers of CIM-16 plates and the bottom chambers were filled with medium containing 5% FBS (Gibco Laboratories, New York, NY, USA) as a chemoattractant. Signal detection was done every 15 min for 24 h and each determination was performed in triplicate. Impedance values were expressed as a dimensionless parameter (Cell Index, CI), and values greater than 0.1 were considered positive. The rate of cell migration was also quantified by calculating the steepness, inclination, gradient, and changing rate of the CI curves over time (Slope).
A Vehicle B 0.025 Vehicle
C 2.5 Vehicle D 0.15 Vehicle
Figure S11. Migration assay: A) Dynamic monitoring of the migration of MDA-MB-436 cells.
We recorded for 24 hours the migration of the cells in the presence only of the vehicle or of the indicated TG2 inhibitors, used at 25 µM concentrations. Data are reported as Cell Index (CI) values ± SD. […] We recorded for 24 hours the migration of the cells in the presence only of the vehicle or of the indicated TG2 inhibitors, used at 25 µM concentrations. […]

[3] = system: MDA-MB-468 cells; assay: Cell proliferation assay, MDA-MB-468; assay type: cell-based; conditions: concentrations up to 100 µM, 48 h
Experimental: (§1) MDA-MB-468 cells were cultured in Dulbecco’s Modified Eagle Medium (DMEM)/F-12 DMEM, Gibco Laboratories, New York, NY, USA), 10% FBS (Gibco Laboratories, New York, NY, USA), 50 U/mL penicillin, and 50 μg/mL streptomycin (Gibco Laboratories, New York, NY, USA), while MDA-MB-231 and MDA-MB-436 cells were cultured in DMEM High Glucose with/stable L-Glutamine (EuroClone, Pero, MI, Italy), 10% FBS, and antibiotics, all grown at 37 °C and in 5% CO2 humidified atmosphere.
(§2) The compounds were added to the cultures at the concentrations of 25, 50, 75, and 100 μM and 0.1% DMSO represented the negative control. After 48 h, the cells were trypsinized for 2 min at 37 °C, trypsin was inactivated using 1 mL of the recovered supernatants (containing 10% FBS), centrifuged at room temperature 5 min at 1200 rpm, washed with PBS and resuspended in complete medium. Finally, 50 μL of cells were diluted in 500 μL of Count & Viability Reagent (Luminex, Prodotti Gianni, Milan, Italy) and analyzed by MUSE®.
(§3) The experiments were carried out in triplicate and the average ± SD of the percentage of living cells was reported. Statistical analysis was performed calculating p value by a Student’s t-test, two-tailed, with homovariance and significance expressed by (*) p value < 0.05.
(§4) Supplementary cellular evaluation figures
(§5) Concentration (µM) Concentration (µM)
(§6) Figure S10. […]

[4] = system: MDA-MB-231 cells; assay: Cell proliferation assay, MDA-MB-231; assay type: cell-based; conditions: concentrations up to 100 µM, 48 h
Experimental: as §1, §2, §3, §4, §5, §6

[5] = system: MDA-MB-436 cells; assay: Cell proliferation assay, MDA-MB-436; assay type: cell-based; conditions: concentrations up to 100 µM, 48 h
Experimental: as §1, §2
The experiments were carried out in triplicate and the average ± SD of the percentage of living cells was reported. […]
Figure 4 Treatment of cancer cells with cell-permeable and cell-impermeable inhibitors. […] NCEG-RHB localization is detected adjacent to the nuclei (N) in both cell types and is indicated by red arrows. […]

SMILES: C=CC(=O)NCCCCC(NC(=O)OCc1ccccc1)C(=O)N1CCN(C(=O)C(CCC(=O)NCC(=O)NCC(=O)NCC(=O)NC(CC(=O)O)C(=O)NC(CC(=O)O)C(=O)NC(CC(=O)O)C(=O)O)NC(=O)c2cccc3ccccc23)CC1 (centres unmarked) [Compound 18] (X1-GGGDDD-OH; configuration not given here)
- effect on cell proliferation [1]: did not have any effect on cell proliferation
- effect on cell migration [2]: failed to suppress migration
- effect on cell proliferation [3]: did not have any effect on cell proliferation
- effect on cell proliferation [4]: did not have any effect on cell proliferation
- effect on cell proliferation [5]: did not have any effect on cell proliferation
